According to patent US12390532B2, “ALK protein regulator and anti-tumor application thereof” (SHANGHAITECH UNIVERSITY, priority 2019, dated 2025):
Where two headings read alike, the source gives them in different places.

Legend:
ALK protein = target: T1, ALK protein (Homo sapiens, UniProt Q9UM73); test: Western blot of ALK protein degradation in SR cells; assay type: cell-based
T1 construct: We studied the total ALK protein in the anaplastic large cell lymphoma cell line SR; host or cells: SR cells (human anaplastic large cell lymphoma); the other entry of the earlier key: NPM1 (P06748, Nucleophosmin)
Method: (§1) The ALK gene rearrangement positive cell line used was SR cells (NPM-ALK, human anaplastic large cell lymphoma cells). MDA-MB231 was a triple-negative breast cancer cell. Both SR cells and MDA-MB231 cells were purchased from ATCC. The 293T cells overexpressing EML4-ALK G1202R were the cells constructed and verified for correct expression by this laboratory.
Tumor cells were seeded in a 24-well plate containing 1 ml of RPMI1640 medium at 1.5-3×10^5 cells/well. The next day, the cells were treated with different concentrations of drugs. After 16 hours, the supernatant was removed and the cells were washed with PBS. The cells were placed on ice and the cells were treated with RIPA protein lysate containing Halt protease and phosphatase inhibitors. The lysate was centrifuged at 10000RPM at 4° C. for 10 minutes, and the supernatant was collected. The same amount of protein was added to the 4×SDS sample solution, denatured at 95° C. for 5 minutes and freezen to −20° C., or protein electrophoresis was directly performed. GenScript, a 4-20% gradient protein precast gel was used as the electrophoresis gel. The electrophoresis tank and related components were purchased from Bio-rad, and the electrophoresis conditions were equal pressure 120 v for 2 hours. PVDF membrane was used for the transfer membrane, and the transfer membrane system was placed on ice with an equal current of 400 mA for one hour. After transferring the membrane, it was sealed with TBST+5% milk powder for half an hour. For the specific steps of immunoblotting, refer to the antibody instructions of Cell Signaling Technology.
DC50 (the drug concentration corresponding to protein degradation to 50%) calculation: according to the gray value of the Western blotting band after the drug is processed, the relationship curve between the drug concentration and the gray value is fitted by Prism GraphPad software to calculate the drug concentration range corresponding half of the gray value.
The cells with different concentrations (0, 10, 50, 100, 500 nM) of Brigatinib were first treated in SR cells for 16 hours. Western blotting was used on cell lysate to detect the effect of Brigatinib on the content of ALK protein (FIG. 2).

[1] = tested on: SR cells (NPM-ALK, human anaplastic large cell lymphoma cells); test: Proliferation inhibition (IC50) in SR cells, CCK8 (WST) reagent; assay type: cell-based; details: 72 h
Method: The ALK gene rearrangement positive cell line used was SR cells (NPM-ALK, human anaplastic large cell lymphoma cells). MDA-MB231 was a triple-negative breast cancer cell. Both SR cells and MDA-MB231 cells were purchased from ATCC.
The tumor cell line used was daily cultured in a 37° C. incubator containing 5% CO2. The medium was RPMI1640 supplemented with 10% FCS and Penicillin-Streptomycin.
(§2) The IC50 of the compound of the present disclosure was determined using Promega's Cell Titer Blue, Cell Titer GLO or commercially available WST reagents. The specific steps were as follows: the cells were seeded in a 96-well plate containing 100 microliters of RPMI medium containing serum at a number of 2000 cells/well. On the second day, the original drug and the compound of the present disclosure were serially diluted and added to the cells. After 72 hours of treatment with the compound of the present disclosure, the cell activity detection reagent was added to the culture medium for cell activity determination according to the instructions. The negative control was DMSO, and the positive control was the original drug, and the cells were treated in the same manner as the compound of the present disclosure. The growth inhibition of the compounds of the present disclosure on cells was plotted by Prism Graphpad software and the IC50 of the compounds of the present disclosure was counted from it.
We conducted dose-dependent experiments on the designed and synthesized compounds of the present disclosure in SR cells. […] The cells were treated with different concentrations of compounds (starting at 10 μM, 3 times dilution factor, 10 concentrations). After 72 hours, the cells were detected using CCK8 reagent (WST).

[2] = tested on: 293T cells overexpressing EML4-ALK G1202R; test: Proliferation inhibition (IC50) in 293T cells overexpressing EML4-ALK G1202R; assay type: cell-based; details: Homo sapiens, HEK-293T; WST reagent, 72 hours; read-out: IC50 (half inhibitory concentration) in 293T cells overexpressing EML4-ALK G1202R
Method: as §2

[3] = tested on: triple-negative breast cancer MDA-MB-231 cell line; test: Proliferation inhibition (IC50) in MDA-MB-231 cell line; assay type: cell-based; details: Homo sapiens, WST reagent, 72 hours, read-out: IC50 (half inhibitory concentration) in MDA-MB-231 cell line
Method: as §1, §2

lung cancer patients = details: cited from earlier work
[4] = SR cells, WST reagent, 72 hours, read-out: IC50 (half inhibitory concentration), Brigatinib series in lymphoma cell lines
[5] = read-out: DC50 (half degradation concentration), Alectinib series in lymphoma cell lines, 16 hours, concentration range at half of the gray value
[6] = read-out: IC50 (half inhibitory concentration), Alectinib series in lymphoma cell lines, SR cells, WST reagent, 72 hours
[7] = 16 hours, concentration range at half of the gray value, read-out: DC50 (half degradation concentration), Brigatinib series in lymphoma cell lines

T1 sequence (Q9UM73 with tags, fused parts or gaps): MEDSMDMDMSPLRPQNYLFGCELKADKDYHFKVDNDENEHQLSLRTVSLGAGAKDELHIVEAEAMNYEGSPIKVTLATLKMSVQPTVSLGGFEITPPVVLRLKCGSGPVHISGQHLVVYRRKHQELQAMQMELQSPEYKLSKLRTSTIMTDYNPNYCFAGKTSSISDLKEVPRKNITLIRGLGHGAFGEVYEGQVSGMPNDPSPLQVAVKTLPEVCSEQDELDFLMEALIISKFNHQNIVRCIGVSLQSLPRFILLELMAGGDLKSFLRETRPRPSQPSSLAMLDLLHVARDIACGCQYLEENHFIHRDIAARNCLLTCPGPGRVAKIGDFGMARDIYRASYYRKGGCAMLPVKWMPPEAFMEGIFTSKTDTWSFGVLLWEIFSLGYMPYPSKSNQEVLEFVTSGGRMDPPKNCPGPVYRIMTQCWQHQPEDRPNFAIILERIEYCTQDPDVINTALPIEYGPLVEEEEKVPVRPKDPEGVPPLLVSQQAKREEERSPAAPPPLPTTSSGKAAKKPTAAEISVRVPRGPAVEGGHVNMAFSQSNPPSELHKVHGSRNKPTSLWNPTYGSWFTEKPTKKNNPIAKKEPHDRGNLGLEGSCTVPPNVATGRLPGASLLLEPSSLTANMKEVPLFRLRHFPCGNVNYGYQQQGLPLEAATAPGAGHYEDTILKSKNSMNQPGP

## COc1cc(N2CCC(N3CCN(C)CC3)CC2)ccc1Nc1ncc(Cl)c(Nc2ccccc2P(C)(C)=O)n1 [Brigatinib, reference compound]
ALK protein; 16 hours, concentrations up to 500 nM
  degradation effect on ALK protein: no degradation effect
[1]; [4]
  IC50: 6.9 nM
[2]
  IC50: 473 ± 129 nM
[3]
  IC50: 381 ± 41 nM
Lung cancer patients
  control rate: 86%
  effective rate: 55%

## COc1cc(N2CCC(N3CCN(CCCC#Cc4cccc5c4CN(C4CCC(=O)NC4=O)C5=O)CC3)CC2)ccc1Nc1ncc(Cl)c(Nc2ccccc2P(C)(C)=O)n1 (centres unmarked) [SIAIS262039, 3-(4-(5-(4-(1-(4-((5-chloro-4-((2-(dimethylphosphono)phenyl)amino)pyrimidin-2-yl)amino)-3-methoxyphenyl)piperidin-4-yl)piperazin-1-yl)pent-1-yn-1-yl)-1-oxoisoindolin-2-yl)piperidine-2,6-dione]
ALK protein
  concentration from which a degradation effect on ALK protein is shown: less than 0.005 nM
[1]; [4]
  IC50: ~1 nM
[3]
  IC50: 22.5 ± 2.26 nM

## CCc1cc2c(cc1N1CCC(N3CCN(CCCC#Cc4cccc5c4CN(C4CCC(=O)NC4=O)C5=O)CC3)CC1)C(C)(C)c1[nH]c3cc(C#N)ccc3c1C2=O (centres unmarked) [SIAIS293001, 8-(4-(4-(5-(2-(2,6-dioxopiperidin-3-yl)-1-oxoisoindolin-4-yl)pent-4-yn-1-yl)piperazin-1-yl)piperidin-1-yl)-9-ethyl-6,6-dimethyl-11-oxo-6,11-dihydro-5H-benzo[b]carbazole-3-carbonitrile]
ALK protein; [5]
  DC50: 0.05 to 0.5 nM
[1]; [6]
  IC50: 2.7 nM

## CCc1cc2c(cc1N1CCC(N3CCN(C(=O)COc4cccc5c4C(=O)N(C4CCC(=O)NC4=O)C5=O)CC3)CC1)C(C)(C)c1[nH]c3cc(C#N)ccc3c1C2=O (centres unmarked) [SIAIS293010, 8-(4-(4-(2-((2-(2,6-dioxopiperidin-3-yl)-1,3-dioxoisoindolin-4-yl)oxy)acetyl)piperazin-1-yl)piperidin-1-yl)-9-ethyl-6,6-dimethyl-11-oxo-6,11-dihydro-5H-benzo[b]carbazole-3-carbonitrile]
ALK protein
  concentration from which a degradation effect on ALK protein is shown: 0.5 nM
ALK protein; [5]
  DC50: 0.05 to 0.5 nM
[1]; [6]
  IC50: 2 nM

## COc1cc(N2CCC(N3CCN(CCCCCCC#Cc4cccc5c4CN(C4CCC(=O)NC4=O)C5=O)CC3)CC2)ccc1Nc1ncc(Cl)c(Nc2ccccc2P(C)(C)=O)n1 (centres unmarked) [SIAIS293017, 3-(4-(8-(4-(1-(4-((5-chloro-4-((2-(dimethylphosphono)phenyl)amino)pyrimidin-2-yl)amino)-3-methoxyphenyl)piperidin-4-yl)piperazin-1-yl)oct-1-yn-1-yl)-1-oxoisoindolin-2-yl)piperidine-2,6-dione]
ALK protein; [7]
  DC50: 0.5 to 5 nM
[1]; [4]
  IC50: 1.5 nM

## COc1cc(N2CCC(N3CCN(CCCCCCCC#Cc4cccc5c4CN(C4CCC(=O)NC4=O)C5=O)CC3)CC2)ccc1Nc1ncc(Cl)c(Nc2ccccc2P(C)(C)=O)n1 (centres unmarked) [SIAIS293018, 3-(4-(9-(4-(1-(4-((5-chloro-4-((2-(dimethylphosphono)phenyl)amino)pyrimidin-2-yl)amino)-3-methoxyphenyl)piperidin-4-yl)piperazin-1-yl)non-1-yn-1-yl)-1-oxoisoindolin-2-yl)piperidine-2,6-dione]
ALK protein
  concentration from which a degradation effect on ALK protein is shown: 5 nM
ALK protein; [7]
  DC50: 0.05 to 0.5 nM
[1]; [4]
  IC50: 2 nM

## COc1cc(N2CCC(NCCCC#Cc3cccc4c3CN(C3CCC(=O)NC3=O)C4=O)CC2)ccc1Nc1ncc(Cl)c(Nc2ccccc2P(C)(C)=O)n1 (centres unmarked) [SIAIS293093, 3-(4-(5-((1-(4-((5-chloro-4-((2-(dimethylphosphono)phenyl)amino)pyrimidin-2-yl)amino)-3-methoxyphenyl)piperidin-4-yl)amino)pent-1-yn-1-yl)-1-oxoisoindolin-2-yl)piperidine-2,6-dione]
[1]; [4]
  IC50: 1.3 nM
[3]
  IC50: 191 ± 106 nM

## COc1cc(N2CCC(N3CCN(Cc4ccc(CSc5cccc6c5CN(C5CCC(=O)NC5=O)C6=O)cc4)CC3)CC2)ccc1Nc1ncc(Cl)c(Nc2ccccc2P(C)(C)=O)n1 (centres unmarked) [SIAIS293189, 3-(4-((4-((4-(1-(4-((5-chloro-4-((2-(dimethylphosphono)phenyl)amino)pyrimidin-2-yl)amino)-3-methoxyphenyl)piperidin-4-yl)piperazin-1-yl)methyl)benzyl)thio)-1-oxoisoindolin-2-yl)piperidine-2,6-dione]
ALK protein; [7]
  DC50: 0.05 to 0.5 nM
[1]; [4]
  IC50: 0.1 ± 0.02 nM
[2]
  IC50: 99.5 ± 8.62 nM

## COc1cc(N2CCC(N3CCN(CCCCCc4cccc5c4CN(C4CCC(=O)NC4=O)C5=O)CC3)CC2)ccc1Nc1ncc(Cl)c(Nc2ccccc2P(C)(C)=O)n1 (centres unmarked) [SIAIS352008, 3-(4-(5-(4-(1-(4-((5-chloro-4-((2-(dimethylphosphono)phenyl)amino)pyrimidin-2-yl)amino)-3-methoxyphenyl)piperidin-4-yl)piperazin-1-yl)pentyl)-1-oxoisoindolin-2-yl)piperidine-2,6-dione]
ALK protein; [7]
  DC50: 0.05 to 0.5 nM
[1]; [4]
  IC50: 2.1 ± 1.2 nM
[3]
  IC50: 4.5 ± 0.5 nM

## COc1cc(N2CCC(N3CCN(CCSc4cccc5c4CN(C4CCC(=O)NC4=O)C5=O)CC3)CC2)ccc1Nc1ncc(Cl)c(Nc2ccccc2P(C)(C)=O)n1 (centres unmarked) [SIAIS352011, 3-(4-((2-(4-(1-(4-((5-chloro-4-((2-(dimethylphosphono)phenyl)amino)pyrimidin-2-yl)amino)-3-methoxyphenyl)piperidin-4-yl)piperazin-1-yl)ethyl)thio)-1-oxoisoindolin-2-yl)piperidine-2,6-dione]
ALK protein; [7]
  DC50: 0.5 to 5 nM
[1]; [4]
  IC50: 1.2 ± 0.3 nM
[3]
  IC50: 4.9 ± 1.04 nM

## COc1cc(N2CCC(N3CCN(CCCCc4cccc5c4CN(C4CCC(=O)NC4=O)C5=O)CC3)CC2)ccc1Nc1ncc(Cl)c(Nc2ccccc2P(C)(C)=O)n1 (centres unmarked) [SIAIS352059, 3-(4-(4-(4-(1-(4-((5-chloro-4-((2-(dimethylphosphono)phenyl)amino)pyrimidin-2-yl)amino)-3-methoxyphenyl)piperidin-4-yl)piperazin-1-yl)butyl)-1-oxoisoindolin-2-yl)piperidine-2,6-dione]
[1]; [4]
  IC50: 1.1 ± 0.3 nM
[3]
  IC50: 75 ± 58 nM
